Experimental findings from patent US20230039836A1, “AROMATIC SULPHONAMIDES DERIVATIVES THAT INHIBITS PDI A3, THEIR SYNTHESIS AND USE” (Uniwersytet Jagiellonski, priority 2020, published 2023) are described below.

Bounds are passed on as bounds.

One series addresses T1, PDI A1 (Homo sapiens, UniProt P07237).
T1 construct: purchased Mybiosource; host or cells: E. coli
The experiment in a line: Insulin turbidometric assay, inhibition of PDI A1. It counts as biochemical. The note with it: insulin reduction, turbidity at 650 nm, 60 min incubation at 37° C.; read-out: Inhibition of PDI A1 (EC 50). As for the experimental part:
The inhibitory effects compounds of invention on activity of PDI A1 was assess based on the insulin turbidometric assay. Enzymatic activity of PDIA1 was confirmed by measuring the turbidity increase at 650 nm due to insulin reduction. The assay mixture was prepared by addition 10 ug/ml PDIA1 (E.coli recombinant protein; Mybiosource), 0.1 mM phosphate buffer (pH7.6), 1 mM EDTA, 0.087 mM DTT and with or without tested compound and was incubated for 60 min, at 37° C. Reaction was started by addition insulin and DTT. Final concentration of insulin and DTT in assay mixture was 0.15 mM and 0.174 mM, respectively. Turbidity was detected at 650 nm against reference samples without PDI A1s. The measurements were performed at 650 nm using 120-s recordings.

In series [1] the test system is Caco-2 (human colon adenocarcinoma). The experiment in a line: MTT antiproliferative assay, 48 h. It counts as cell-based. The following applies: Homo sapiens, Caco-2, 48-hour exposition, read-out: Cytotoxicity, IC50, µM CaCo-2. As for the experimental part:
(§1) About 2000-4000 cells per well (depending on line nature) were placed in 96-well plates and after 24 h compounds were added to the wells. Untreated cells were used as a control. The plates were incubated for 48 h, 37° C., 5% CO2. The number of surviving cells was determined using 3-(4,5-dimethylthiazol-2-yl)-2,5-diphenyltetrazolinium bromide (MTT). MTT-test: after incubating culture medium was removed and 200 µL fresh medium with 20 µL MTT (2 mg/mL in HBSS) was added in each well of the plate. After incubation (3 hr., 37° C., 5% CO2), the medium with MTT was removed and 200 µL DMSO were added at once to each sample. The samples were tested at 540 nm on Thermo Scientific Multiskan EX microplate photometer. The half-maximal inhibitory concentration (IC50) of each compound was calculated using Graph Pad Prism® 3.0.
(In general: Formazan colour is commonly taken as a measure of viable cells.)

Series [2] relates to HT-1080 (human fibrosarcoma). The experiment in a line: MTT antiproliferative assay, 48 h. The class given is cell-based. The following applies: 48-hour exposition, read-out: Cytotoxicity, IC50, µM HT-1080. Here is the method: as §1
In series [3] the test system is MCF-7 (human breast adenocarcinoma, estrogen-positive). The series can be described thus: MTT antiproliferative assay, 48 h. It counts as cell-based. The following applies: Homo sapiens, MCF7, 48-hour exposition, read-out: Cytotoxicity, IC50, µM MCF-7. Here is the method: as §1
Series [4] deals with MDA-MB-231 (human mammary breast adenocarcinoma). The experiment in a line: MTT antiproliferative assay, 48 h. The class given is cell-based. The note with it: Homo sapiens, MDA-MB-231, 48-hour exposition, read-out: Cytotoxicity, IC50, µM MDA-MB-231. Here is the method:
as §1

Series [5] concerns Lewis Lung Carcinoma (LLC). The experiment in a line: Murine model of Lewis Lung Carcinoma. The class given is in vivo, mice. The note with it: in vivo, FIG. 5; for Effect on animal weight: no evident toxicity. As for the experimental part: To confirm anticancer activity of selected compounds of invention, PDI A1-inhibitors in vivo, selected compounds of invention were tested in the murine model of Lewis Lung Carcinoma (LLC). The Lewis Lung Carcinoma (LLC) cell line was obtained from the ATCC collection and was cultured in a humidified atmosphere of 5% CO2 at 37° using Dulbecco’s modified Eagle’s medium (DMEM) that contained 10% bovine serum (Sigma). Female (6-8 weeks old) C57BL/6 mice (purchased from Envigo RMS. BV., Nederland) were acclimated for one week and were fed with animal chow and water ad libitum. The C57BL/6 mice were injected s.c. with 0.5 × 10^5 LLC cells per mice in 100 µL PBS. Compounds were dissolved in DMSO and then 0.9% NaCl (DMSO final concentration 1%) were added. In each treatment group, i.p. injections of 100 µl compound were started on 1 day after tumor inoculation. Control animals injected with equal volume of 0.9% NaCl with 1% DMSO administered in the same schedule as other groups. Tumor larger radius (a) and smaller radius (b) were measured by calipers. The tumor volume (Tv) was calculated according the following formulaTv = V=4 • ab2/3. The mice in control group were sacrificed 17 days after tumor establishment. Tumor tissues were dissected, weighed and frozen in OCT compound.

T1 sequence (P07237 18-508, species assumed): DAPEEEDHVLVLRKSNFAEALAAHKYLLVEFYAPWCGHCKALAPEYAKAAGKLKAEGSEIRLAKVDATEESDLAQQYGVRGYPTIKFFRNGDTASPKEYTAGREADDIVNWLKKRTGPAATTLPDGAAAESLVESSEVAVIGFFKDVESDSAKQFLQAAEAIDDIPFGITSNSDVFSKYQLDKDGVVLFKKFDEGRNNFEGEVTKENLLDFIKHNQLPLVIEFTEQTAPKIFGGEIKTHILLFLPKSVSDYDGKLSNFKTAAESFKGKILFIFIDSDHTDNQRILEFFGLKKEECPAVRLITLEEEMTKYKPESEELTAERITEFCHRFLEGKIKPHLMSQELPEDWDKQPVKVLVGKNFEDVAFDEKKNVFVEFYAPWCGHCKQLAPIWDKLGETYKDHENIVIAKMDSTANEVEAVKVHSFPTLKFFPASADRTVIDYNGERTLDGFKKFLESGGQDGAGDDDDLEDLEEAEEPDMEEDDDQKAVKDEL

Usually IC50 stands for the concentration at which inhibition is half-maximal. `COC(=O)[C@@H]1CN1S(=O)(=O)c1ccc(C)cc1` (stereo partly drawn) [Compound C-3535, Methyl (2S)-1-(p-tolylsulfonyl)aziridine-2-carboxylate]: the EC50 on PDI A1 worked out at 11.2 µM. Also, the IC50 came out at 35 ± 7 µM in series [1], 84 ± 3 µM in series [2], 81 µM in series [3] and 107 ± 11 µM in series [4].

Consider `COC(=O)C1CN1S(=O)(=O)c1ccco1` (stereo not drawn) [Compound C-3346, Methyl 1-(2-furylsulfonyl)aziridine-2-carboxylate], for which the EC50 at PDI A1 is over 200 µM. Further, the IC50 in series [1] was 17 ± 2 µM; in series [2] it was 169 ± 11 µM; in series [3], 458 ± 6 µM; in series [4], over 200 µM.

On to `CC(=O)C1CN1S(=O)(=O)c1ccc(C)cc1` (stereo not drawn) [Compound C-3263, 1-[1-(p-Tolylsulfonyl)aziridin-2-yl]ethanone], for which, on PDI A1, the EC50 came to 140 µM. Also, the IC50 was 29 ± 0.8 µM in series [1], 7.6 ± 0.2 µM in series [2], 17 ± 0.2 µM in series [3] and 9.1 ± 0.5 µM in series [4].

In the case of `CCCCCCc1ccc(S(=O)(=O)N2CC2C(=O)N2CCOCC2)cc1` (stereo not drawn) [Compound C-3517, [1-(4-Hexylphenyl)sulfonylaziridin-2-yl]-morpholino-methanone], the IC50 in series [4] was found to be 12 ± 1 µM.

Take `COC(=O)C1CN1S(=O)(=O)c1cccc2ccccc12` (stereo not drawn) [Compound C-3311, Methyl 1-(1-naphthylsulfonyl)aziridine-2-carboxylate]: the EC50 on PDI A1 is 5 µM.

Turning to `Cc1ccc(S(=O)(=O)N2CC2C=O)cc1` (stereo not drawn) [Compound C-3262, 1-(p-Tolylsulfonyl)aziridine-2-carbaldehyde], on PDI A1, the EC50 was determined as 160 µM. The IC50 in series [1] was determined as 13.5 ± 0.8 µM; in series [2] it was 3.8 ± 0.3 µM; in series [3] it was 7.2 ± 0.8 µM; in series [4], 6.8 ± 0.8 µM.

Turning to `COC(=O)C1CN1S(=O)(=O)c1ccc2cc(C)ccc2c1` (stereo not drawn) [Compound C-3329, Methyl 1-[(6-methyl-2-naphthyl)sulfonyl]aziridine-2-carboxylate], in series [5], the “Effect on tumour volume” value is “diminished tumour volume” and the “Effect on animal weight” value was “did not modified animal weight”.

Consider `CCCc1ccc(S(=O)(=O)N2CC2C(=O)OC)cc1` (stereo not drawn) [Compound C-3299, Methyl 1-(4-propylphenyl)sulfonylaziridine-2-carboxylate], for which the EC50 on PDI A1 was 0.8 µM.

For the molecule `Cc1ccc(S(=O)(=O)N2CC2C(=O)O)cc1` (stereo not drawn) [Compound C-3612, Lithium 1-tosylaziridine-2-carboxylate], the EC50 at PDI A1 amounted to 54.4 µM.

With `CCCCc1ccc(S(=O)(=O)N2CC2C(=O)N(C)C)cc1` (stereo not drawn) [Compound C-3362, 1-(4-Butylphenyl)sulfonyl-N,N-dimethyl-aziridine-2-carboxamide], at PDI A1, the EC50 worked out at 0.5 µM.

For `COC(=O)C1CN1S(=O)(=O)c1ccc(C(F)(F)F)cc1` (stereo not drawn) [Compound C-3256, Methyl 1-[4-(trifluoromethyl)phenyl]sulfonylaziridine-2-carboxylate], the EC50 on PDI A1 was found to be 0.5 µM.

In the case of `CN(C)C(=O)C1CN1S(=O)(=O)c1ccc(C(C)(C)C)cc1` (stereo not drawn) [Compound C-3594, 1-(4-tert-Butylphenyl)sulfonyl-N,N-dimethyl-aziridine-2-carboxamide], the EC50 on PDI A1 stood at 26 µM.

In the case of `COC(=O)C1CN1S(=O)(=O)c1ccc(-c2ccccc2)cc1` (stereo not drawn) [Compound C-3291, Methyl 1-(4-phenylphenyl)sulfonylaziridine-2-carboxylate], the EC50 at PDI A1 came out at 0.4 µM.

Consider `CN(C)C(=O)C1CN1S(=O)(=O)c1ccc(N(C)C)cc1` (stereo not drawn) [Compound C-3357, 1-[4-(Dimethylamino)phenyl] sulfonyl-N,N-dimethyl-aziridine-2-carboxamide], for which the IC50 in series [1] is 61 ± 3 µM; in series [2], 30 ± 1 µM; in series [3] it was 295 ± 9 µM; in series [4], 25 ± 6 µM.

Turning to `NC(=O)C1CN1S(=O)(=O)c1ccc(C(F)(F)F)cc1` (stereo not drawn) [Compound C-3324, 1-[4-(Trifluoromethyl)phenyl] sulfonylaziridine-2-carboxamide], the IC50 in series [1] amounted to 27 ± 3 µM; in series [2] it was 510 ± 3 µM; in series [3], 156 ± 9 µM; in series [4] it was 102 ± 12 µM.

Consider `COC(=O)C1CN1S(=O)(=O)c1ccc2cc(N(C)C)ccc2c1` (stereo not drawn) [Compound C-3397, Methyl 1-[[6-(dimethylamino)-2-naphthyl]sulfonyl]aziridine-2-carboxylate], for which the IC50 in series [4] stood at 38 ± 2 µM.

Regarding `CCCCCc1ccc(S(=O)(=O)N2CC2C(=O)OC)cc1` (stereo not drawn) [Compound C-3281, Methyl 1-(4-pentylphenyl)sulfonylaziridine-2-carboxylate], in series [5], the “Effect on tumour volume” value was “diminished tumour volume” and the “Effect on animal weight” value is recorded as “did not modified animal weight”.

In the case of `COC(=O)C1CN1S(=O)(=O)c1ccc2cc(OC)ccc2c1` (stereo not drawn) [Compound C-3327, Methyl 1-[(6-methoxy-2-naphthyl)sulfonyl]aziridine-2-carboxylate], the IC50 in series [1] was found to be 150 ± 10 µM.

For `COC(=O)C1CN1S(=O)(=O)c1ccccc1C` (stereo not drawn) [Compound C-3320, Methyl 1-(o-tolylsulfonyl)aziridine-2-carboxylate], the IC50 in series [4] is 380 ± 15 µM.

For the molecule `COC(=O)C1CN1S(=O)(=O)c1ccc(C(C)(C)C)cc1` (stereo not drawn) [Compound C-3290, Methyl 1-(4-tert-butylphenyl)sulfonylaziridine-2-carboxylate], on PDI A1, the EC50 worked out at 0.4 µM. In addition, in series [3], the IC50 was found to be 29 ± 4 µM.

Take `CCCCCCCc1ccc(S(=O)(=O)N2CC2C(=O)OC)cc1` (stereo not drawn) [Compound C-3288, Methyl 1-(4-heptylphenyl)sulfonylaziridine-2-carboxylate]: the EC50 on PDI A1 was 0.4 µM.

As for `Cc1ccc(S(=O)(=O)N2CC2C(N)=O)cc1` (stereo not drawn) [Compound C-3220, 1-(p-Tolylsulfonyl)aziridine-2-carboxamide], the EC50 at PDI A1 was over 200 µM.

In the case of `CCCCCCc1ccc(S(=O)(=O)N2CC2C(=O)N(C)C)cc1` (stereo not drawn) [Compound C-3369, 1-(4-Hexylphenyl)sulfonyl-N,N-dimethyl-aziridine-2-carboxamide], the EC50 at PDI A1 was found to be 0.04 µM.

Consider `CN(C)C(=O)C1CN1S(=O)(=O)c1ccc(N(C)C)c2ccccc12` (stereo not drawn) [Compound C-3385, 1-[[4-(Dimethylamino)-1-naphthyl]sulfonyl] -N,N-dimethylaziridine-2-carboxamide], for which the EC50 on PDI A1 was 0.7 µM.

For the molecule `CCCCOc1ccc(S(=O)(=O)N2CC2C(=O)OC)cc1` (stereo not drawn) [Compound C-3271, Methyl 1-(4-butoxyphenyl)sulfonylaziridine-2-carboxylate], the EC50 on PDI A1 is 1 µM.

As for `CN(C)C(=O)C1CN1S(=O)(=O)c1ccc(F)cc1F` (stereo not drawn) [Compound C-3403, 1-(2,4-Difluorophenyl)sulfonyl-N,N-dimethyl-aziridine-2-carboxamide], the EC50 at PDI A1 came to 12.3 µM.

On to `CN(C)C(=O)C1CN1S(=O)(=O)c1cccc2cc(N(C)C)ccc12` (stereo not drawn) [Compound C-3377, 1-[[6-(Dimethylamino)-1-naphthyl]sulfonyl]-N,N-dimethylaziridine-2-carboxamide], for which the IC50 in series [3] amounted to 4.8 ± 0.1 µM.

Consider `CCCCCCCCCCCCc1ccc(S(=O)(=O)N2CC2C(=O)OC)cc1` (stereo not drawn) [Compound C-3270, Methyl 1-(4-dodecylphenyl)sulfonylaziridine-2-carboxylate], for which, on PDI A1, the EC50 was found to be 0.8 µM.

As for `CC(C)(C)c1ccc(S(=O)(=O)N2CC2C(N)=O)cc1` (stereo not drawn) [Compound C-3591, 1-(4-tert-Butylphenyl)sulfonylaziridine-2-carboxamide], the EC50 at PDI A1 was determined as 11 µM.
